Reference: PubChem BioAssay AID250 (DTP/NCI, 2004)
Inconclusive results and toxic doses are left out.

System: BDF1 mice, L1210 leukemia sc, survival T/C
Experiment: NCI In Vivo Anticancer Drug Screen. Data for tumor model L1210 Leukemia (subcutaneous) in B6D2F1 (BDF1) mice
Conditions: endpoint: median survival time, higher = longer survival
Procedure, shortened: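 Antitumor activity is assessed in mice with transplanted tumors by comparing the treated group (T) with the vehicle control group (C).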

[1] = dose: 65.0 mg/kg/injection, schedule: Q01DX Z (sc), vehicle: methylcellulose (MC)
[2] = dose: 108.0 mg/kg/injection, schedule: Q01DX Z (sc), vehicle: methylcellulose (MC)
[3] = dose: 180.0 mg/kg/injection, schedule: Q01DX Z (sc), vehicle: methylcellulose (MC)
[4] = dose: 300.0 mg/kg/injection, schedule: Q01DX Z (sc), vehicle: methylcellulose (MC)
[5] = dose: 500.0 mg/kg/injection, schedule: Q01DX Z (sc), vehicle: methylcellulose (MC)

CCN(CC)CCNC(=O)N(Cc1ccccc1)c1ccccc1
T/C (dose: 22.0 mg/kg/injection, schedule: Q01DX Z (sc), vehicle: methylcellulose (MC)): 100 % of control
T/C (dose: 37.0 mg/kg/injection, schedule: Q01DX Z (sc), vehicle: methylcellulose (MC)): 100 % of control
T/C (dose: 62.0 mg/kg/injection, schedule: Q01DX Z (sc), vehicle: methylcellulose (MC)): 100 % of control
T/C (dose: 104.0 mg/kg/injection, schedule: Q01DX Z (sc), vehicle: methylcellulose (MC)): 100 % of control
T/C (dose: 173.0 mg/kg/injection, schedule: Q01DX Z (sc), vehicle: methylcellulose (MC)): 100 % of control
T/C (dose: 288.0 mg/kg/injection, schedule: Q01DX Z (sc), vehicle: methylcellulose (MC)): 100 % of control
T/C (dose: 480.0 mg/kg/injection, schedule: Q01DX Z (sc), vehicle: methylcellulose (MC)): 100 % of control
T/C (dose: 800.0 mg/kg/injection, schedule: Q01DX Z (sc), vehicle: methylcellulose (MC)): 100 % of control

CN(N=O)C(=O)NC(C=O)C(O)C(O)C(O)CO (stereo unspecified)
T/C (dose: 39.0 mg/kg/injection, schedule: Q01DX Z (sc), vehicle: saline): 100 % of control
T/C (dose: 65.0 mg/kg/injection, schedule: Q01DX Z (sc), vehicle: saline): 112 % of control
T/C (dose: 108.0 mg/kg/injection, schedule: Q01DX Z (sc), vehicle: saline): 100 % of control
T/C (dose: 180.0 mg/kg/injection, schedule: Q01DX Z (sc), vehicle: saline): 112 % of control
T/C (dose: 300.0 mg/kg/injection, schedule: Q01DX Z (sc), vehicle: saline): 112 % of control
T/C (dose: 500.0 mg/kg/injection, schedule: Q01DX Z (sc), vehicle: saline): 100 % of control

O=C1CCC(N2C(=O)c3ccccc3C2=O)C(=O)N1 (stereo unspecified)
T/C (dose: 6.0 mg/kg/injection, schedule: Q01DX Z (sc), vehicle: methylcellulose (MC)): 100 % of control
T/C (dose: 12.0 mg/kg/injection, schedule: Q01DX Z (sc), vehicle: methylcellulose (MC)): 100 % of control
T/C (dose: 24.0 mg/kg/injection, schedule: Q01DX Z (sc), vehicle: methylcellulose (MC)): 100 % of control
T/C (dose: 48.0 mg/kg/injection, schedule: Q01DX Z (sc), vehicle: methylcellulose (MC)): 100 % of control
T/C [1]: 100 % of control
T/C [2]: 94 % of control
T/C [3]: 88 % of control
T/C [4]: 100 % of control
T/C [5]: 100 % of control

CC[n+]1ccc(Nc2ccc(NC(=O)c3ccc(Nc4cc[n+](CC)c5ccc(N)cc45)cc3)cc2)cc1
T/C (dose: 0.5 mg/kg/injection, schedule: Q01DX009 (sc), vehicle: water): 100 % of control
T/C (dose: 0.5 mg/kg/injection, schedule: Q03HX024 (ip), vehicle: water): 122 % of control
T/C (dose: 1.0 mg/kg/injection, schedule: Q01DX009 (ip), vehicle: water): 172 % of control
T/C (dose: 1.0 mg/kg/injection, schedule: Q01DX009 (sc), vehicle: water): 105 % of control
T/C (dose: 1.0 mg/kg/injection, schedule: Q03HX024 (ip), vehicle: water): 177 % of control
T/C (dose: 1.0 mg/kg/injection, schedule: Q03HX024 (sc), vehicle: water): 115 % of control
T/C (dose: 2.0 mg/kg/injection, schedule: Q01DX009 (ip), vehicle: water): 172 % of control
T/C (dose: 2.0 mg/kg/injection, schedule: Q03HX008 (sc), vehicle: water): 120 % of control
T/C (dose: 2.0 mg/kg/injection, schedule: Q03HX024 (ip), vehicle: water): 200 % of control
T/C (dose: 2.0 mg/kg/injection, schedule: Q03HX024 (sc), vehicle: water): 160 % of control
T/C (dose: 2.0 mg/kg/injection, schedule: Q04DX003 (sc), vehicle: water): 100 % of control
T/C (dose: 4.0 mg/kg/injection, schedule: Q01DX001 (sc), vehicle: water): 110 % of control
T/C (dose: 4.0 mg/kg/injection, schedule: Q01DX009 (ip), vehicle: water): 122 % of control
T/C (dose: 4.0 mg/kg/injection, schedule: Q01DX009 (sc), vehicle: water): 210 % of control
T/C (dose: 4.0 mg/kg/injection, schedule: Q03HX024 (sc), vehicle: water): 190 % of control
T/C (dose: 4.0 mg/kg/injection, schedule: Q04DX003 (sc), vehicle: water): 115 % of control
T/C (dose: 8.0 mg/kg/injection, schedule: Q01DX001 (sc), vehicle: water): 110 % of control
T/C (dose: 8.0 mg/kg/injection, schedule: Q01DX009 (ip), vehicle: water): 111 % of control
T/C (dose: 8.0 mg/kg/injection, schedule: Q01DX009 (sc), vehicle: water): 170 % of control
T/C (dose: 8.0 mg/kg/injection, schedule: Q03HX008 (sc), vehicle: water): 185 % of control
T/C (dose: 8.0 mg/kg/injection, schedule: Q03HX024 (ip), vehicle: water): 111 % of control
T/C (dose: 16.0 mg/kg/injection, schedule: Q04DX003 (sc), vehicle: water): 165 % of control

CCCCSc1ncnc2nc[nH]c12
T/C (dose: 14.0 mg/kg/injection, schedule: Q01DX Z (sc), vehicle: methylcellulose (MC)): 90 % of control
T/C (dose: 23.3 mg/kg/injection, schedule: Q01DX Z (sc), vehicle: methylcellulose (MC)): 100 % of control
T/C (dose: 38.9 mg/kg/injection, schedule: Q01DX Z (sc), vehicle: methylcellulose (MC)): 104 % of control
T/C [5]: 113 % of control
T/C (dose: 833.0 mg/kg/injection, schedule: Q01DX Z (sc), vehicle: methylcellulose (MC)): 100 % of control

COc1ccc(/C=N/NC(N)=S)cc1
T/C (dose: 39.0 mg/kg/injection, schedule: Q01DX Z (sc), vehicle: methylcellulose (MC)): 95 % of control
T/C (dose: 39.0 mg/kg/injection, schedule: Q01DX Z (sc), vehicle: water): 100 % of control
T/C [1]: 100 % of control
T/C (dose: 65.0 mg/kg/injection, schedule: Q01DX Z (sc), vehicle: water): 100 % of control
T/C [2]: 100 % of control
T/C (dose: 108.0 mg/kg/injection, schedule: Q01DX Z (sc), vehicle: water): 100 % of control
T/C [3]: 95 % of control
T/C (dose: 180.0 mg/kg/injection, schedule: Q01DX Z (sc), vehicle: water): 100 % of control
T/C (dose: 216.0 mg/kg/injection, schedule: Q01DX Z (sc), vehicle: water): 100 % of control
T/C [4]: 100 % of control
T/C (dose: 300.0 mg/kg/injection, schedule: Q01DX Z (sc), vehicle: water): 100 % of control
T/C (dose: 360.0 mg/kg/injection, schedule: Q01DX Z (sc), vehicle: water): 111 % of control
T/C [5]: 100 % of control
T/C (dose: 500.0 mg/kg/injection, schedule: Q01DX Z (sc), vehicle: water): 100 % of control
T/C (dose: 600.0 mg/kg/injection, schedule: Q01DX Z (sc), vehicle: water): 105 % of control
T/C (dose: 1000.0 mg/kg/injection, schedule: Q01DX Z (sc), vehicle: water): 111 % of control

CCCn1cnc2c(=S)nc(N)[nH]c21
T/C (dose: 0.65 mg/kg/injection, schedule: Q01DX Z (sc), vehicle: methylcellulose (MC)): 100 % of control
T/C (dose: 0.65 mg/kg/injection, schedule: Q01DX Z (sc), vehicle: other): 100 % of control
T/C (dose: 1.08 mg/kg/injection, schedule: Q01DX Z (sc), vehicle: methylcellulose (MC)): 100 % of control
T/C (dose: 1.08 mg/kg/injection, schedule: Q01DX Z (sc), vehicle: other): 100 % of control
T/C (dose: 1.8 mg/kg/injection, schedule: Q01DX Z (sc), vehicle: methylcellulose (MC)): 100 % of control
T/C (dose: 1.8 mg/kg/injection, schedule: Q01DX Z (sc), vehicle: other): 105 % of control
T/C (dose: 3.0 mg/kg/injection, schedule: Q01DX Z (sc), vehicle: methylcellulose (MC)): 111 % of control
T/C (dose: 3.0 mg/kg/injection, schedule: Q01DX Z (sc), vehicle: other): 111 % of control
T/C (dose: 5.0 mg/kg/injection, schedule: Q01DX Z (sc), vehicle: methylcellulose (MC)): 111 % of control
T/C (dose: 5.0 mg/kg/injection, schedule: Q01DX Z (sc), vehicle: other): 122 % of control
T/C (dose: 8.4 mg/kg/injection, schedule: Q01DX Z (sc), vehicle: methylcellulose (MC)): 122 % of control
T/C (dose: 8.4 mg/kg/injection, schedule: Q01DX Z (sc), vehicle: other): 155 % of control
T/C (dose: 14.0 mg/kg/injection, schedule: Q01DX Z (sc), vehicle: other): 161 % of control
T/C (dose: 230.0 mg/kg/injection, schedule: Q01DX Z (sc), vehicle: other): 155 % of control
T/C (dose: 390.0 mg/kg/injection, schedule: Q01DX Z (sc), vehicle: other): 150 % of control
